We go through 25 compounds from patent publication US9409914B2, “Triazolo[4,5-d]pyrimidine derivatives” (Merck Patent GmbH, priority 2012, dated 2016).

Where only a bound is given, the exact number is not on record here.

In experiment [1] the target is T1, GCN2 (Homo sapiens, UniProt Q9P2K8). Kind of experiment: Cellular assay for GCN2 activity (phospho-eIF2alpha immunocytochemistry, tryptophanol-stimulated U2OS cells). The following applies: 2 hours compound, then 600 μM tryptophanol 30 minutes, anti-phospho-eIF2alpha, read-out: IC50 GCN2 (cell assay). More on the design: endogenous in cells; host or cells: U2OS. The experiment is classed as cell-based. How it is done:
Cellular Assay for the Determination of Compound Activities
Human U2OS cells (2000 cells/well) are seeded into 384-well plates and incubated for 20 hours.
The next day, the cells are treated with the test compounds and incubated for 2 hours. Then, tryptophanol, at a final concentration of 600 μM, is added to the cells and those are incubated for 30 minutes.
The analysis of cellular GCN2 activities is done by immunocytochemistry. Briefly, cells are fixated on the well surfaces by formaldehyde and permeabilised with Triton X-100. The primary antibody (anti-phospho-eIF2alpha (Ser51, Cell Signalling Technology, #3398) is incubated on the treated cells for 20 hours, followed by a 60 minutes incubation of the secondary antibody (anti-rabbit-IgG-Alexa 488; Molecular Probes #11008). The analysis and quantification of phosphorylated GCN2 is done by scanning the plates in the Acumen Explorer system (TTPLabtech). The obtained data are normalised against the untreated control wells (DMSO only) and expressed as % effect values. The determination of IC50 values is done by using the Graph Pad Prism software.
Target sequence in this assay (Q9P2K8 whole entry): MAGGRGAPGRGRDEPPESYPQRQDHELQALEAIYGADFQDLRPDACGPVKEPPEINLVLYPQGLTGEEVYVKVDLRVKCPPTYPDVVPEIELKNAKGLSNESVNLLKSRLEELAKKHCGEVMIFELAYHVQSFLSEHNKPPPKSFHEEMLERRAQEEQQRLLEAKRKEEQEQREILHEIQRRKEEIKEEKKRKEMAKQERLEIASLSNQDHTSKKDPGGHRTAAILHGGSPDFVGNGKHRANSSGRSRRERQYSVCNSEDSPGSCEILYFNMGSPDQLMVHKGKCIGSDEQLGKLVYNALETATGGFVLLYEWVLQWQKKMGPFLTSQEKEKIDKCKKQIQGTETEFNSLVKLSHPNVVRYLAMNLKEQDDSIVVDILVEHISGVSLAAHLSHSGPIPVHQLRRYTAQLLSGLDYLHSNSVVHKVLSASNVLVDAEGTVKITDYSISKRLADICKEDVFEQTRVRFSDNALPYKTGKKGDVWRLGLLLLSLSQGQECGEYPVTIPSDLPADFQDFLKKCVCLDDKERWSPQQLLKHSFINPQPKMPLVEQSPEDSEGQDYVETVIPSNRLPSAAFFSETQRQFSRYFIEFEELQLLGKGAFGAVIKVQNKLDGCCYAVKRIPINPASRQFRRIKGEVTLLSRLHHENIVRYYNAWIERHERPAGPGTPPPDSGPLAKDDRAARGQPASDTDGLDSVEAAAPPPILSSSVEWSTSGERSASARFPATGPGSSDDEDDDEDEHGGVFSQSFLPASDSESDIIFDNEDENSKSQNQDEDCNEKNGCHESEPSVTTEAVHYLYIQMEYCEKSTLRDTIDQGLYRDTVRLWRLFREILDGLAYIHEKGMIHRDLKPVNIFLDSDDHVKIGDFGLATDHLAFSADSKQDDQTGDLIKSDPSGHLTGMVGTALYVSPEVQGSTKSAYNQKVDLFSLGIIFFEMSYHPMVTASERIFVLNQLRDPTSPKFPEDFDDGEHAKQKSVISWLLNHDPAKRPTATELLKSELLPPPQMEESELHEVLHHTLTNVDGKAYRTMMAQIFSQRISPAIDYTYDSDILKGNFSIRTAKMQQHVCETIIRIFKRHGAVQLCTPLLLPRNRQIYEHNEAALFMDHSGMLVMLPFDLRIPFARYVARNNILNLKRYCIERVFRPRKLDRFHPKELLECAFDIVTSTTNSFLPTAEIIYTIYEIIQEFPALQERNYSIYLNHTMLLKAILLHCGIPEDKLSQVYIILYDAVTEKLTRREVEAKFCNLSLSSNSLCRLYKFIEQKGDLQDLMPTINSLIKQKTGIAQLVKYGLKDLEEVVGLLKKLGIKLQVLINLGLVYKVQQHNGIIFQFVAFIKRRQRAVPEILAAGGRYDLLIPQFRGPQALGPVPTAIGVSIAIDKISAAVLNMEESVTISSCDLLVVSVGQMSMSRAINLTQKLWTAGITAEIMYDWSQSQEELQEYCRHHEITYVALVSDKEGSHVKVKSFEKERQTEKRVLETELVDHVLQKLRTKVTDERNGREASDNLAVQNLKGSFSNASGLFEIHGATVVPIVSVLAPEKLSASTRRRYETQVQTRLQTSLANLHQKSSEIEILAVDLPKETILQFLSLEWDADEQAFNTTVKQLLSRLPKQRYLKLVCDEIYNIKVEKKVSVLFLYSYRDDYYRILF

The target in experiment [2] is T1, GCN2. Nature of the experiment: GCN2 enzyme assay (TR-FRET Lanthascreen, phosphorylation of GFP-eIF2alpha). The experiment is classed as biochemical. The following applies: 10 μM ATP, 80 nM GFP-eIF2alpha, 30 nM GCN2, room temperature. An outline of the steps: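 Two-step TR-FRET (Lanthascreen) format: GCN2 incubated at room temperature with 10 μM ATP and 80 nM GFP-labelled eIF2alpha, then stopped with EDTA. Phospho-eIF2alpha detected by Tb-labelled antibody, excitation 340 nm; activity taken from the 520/495 nm emission ratio.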
Target sequence in this assay (Q9P2K8 whole entry, species assumed): as the sequence (Q9P2K8 whole entry) above
On the technique in general: Time-resolved FRET reads energy transfer from a long-lived donor to a nearby acceptor.

In general, IC50 refers to the concentration needed to halve the response being measured. As to `CN1CCC(n2cc(Nc3ncc4nnn(-c5ccc(N6CCCC6=O)cc5)c4n3)cn2)CC1` [Compound A48, 1-(4-{5-[1-(1-methyl-piperidin-4-yl)-1H-pyrazol-4-ylamino]-[1,2,3]triazolo[4,5-d]pyrimidin-3-yl}-phenyl)-pyrrolidin-2-one], the IC50 on GCN2 [1] was 300 to 3000 nM; at GCN2 [2], < 300 nM.
For the compound `OC[C@@H]1C[C@H]1Cn1cc(Nc2ncc3nnn(-c4ccc(Cl)c(F)c4)c3n2)cn1` (relative stereo) [Compound A98, ((trans)-2-{4-[3-(4-chloro-3-fluoro-phenyl)-3H-[1,2,3]triazolo[4,5-d]pyrimidin-5-ylamino]-pyrazol-1-ylmethyl}-cyclopropyl)-methanol], the concentration for half-maximal inhibition (IC50) at GCN2 [1] was 300 to 3000 nM; on GCN2 [2], < 300 nM.
For `COCCOc1ccc(-n2nnc3cnc(Nc4cnn(C5CCOCC5)c4)nc32)cc1` [Compound A87, {3-[4-(2-methoxy-ethoxy)-phenyl]-3H-[1,2.3]triazolo[4,5-d]pyrimidin-5-yl}-[1-(tetrahydro-pyran-4-yl)-1H-pyrazol-4-yl]-amine] the same measures were 300 to 3000 nM and < 300 nM.
As for `CC1(C)C(=O)Nc2cc(-n3nnc4cnc(Nc5cnn(C6CCOCC6)c5)nc43)ccc21` [Compound A85, 3,3-dimethyl-6-{5-[1-(tetrahydro-pyran-4-yl)-1H-pyrazol-4-ylamino]-[1,2,3]triazolo[4,5-d]pyrimidin-3-yl}-1,3-dihydro-indol-2-one], the results for the IC50 at GCN2 [1] and against GCN2 [2] were 300 to 3000 nM and < 300 nM, respectively.
Consider `CN1CCC(n2cc(Nc3ncc4nnn(-c5ccc(F)c(F)c5)c4n3)cn2)CC1` [Compound A120, [3-(3,4-difluoro-phenyl)-3H-[1,2,3]triazolo[4,5-d]pyrimidin-5-yl]-[1-(1-methyl-piperidin-4-yl)-1H-pyrazol-4-yl]-amine], for which the IC50 at GCN2 [1] fell in the range of 3000 to 50000 nM; against GCN2 [2], 300 to 3000 nM.
For `CN1CCC(n2cc(Nc3ncc4nnn(-c5ccc6[nH]c(C(F)(F)F)nc6c5)c4n3)cn2)CC1` [Compound A95, [1-(1-methyl-piperidin-4-yl)-1H-pyrazol-4-yl]-[3-(2-trifluoromethyl-1H-benzoimidazol-5-yl)-3H-[1,2,3]triazolo[4,5-d]pyrimidin-5-yl]-amine] the same measures were 3000 to 50000 nM and < 300 nM.
For `CN1CCC(n2cc(Nc3ncc4nnn(-c5cccc(F)c5)c4n3)cn2)CC1` [Compound A118, [3-(3-fluoro-phenyl)-3H-[1,2,3]triazolo[4,5-d]pyrimidin-5-yl]-[1-(1-methyl-piperidin-4-yl)-1H-pyrazol-4-yl]-amine], in that order: 300 to 3000 nM and < 300 nM.
As to `Fc1cc(-n2nnc3cnc(Nc4cnn(C5CCOCC5)c4)nc32)ccc1Cl` [Compound A81, [3-(4-chloro-3-fluoro-phenyl)-3H-[1,2,3]triazolo[4,5-d]pyrimidin-5-yl]-[1-(tetrahydro-pyran-4-yl)-1H-pyrazol-4-yl]-amine], the values for the IC50 on GCN2 [1] and against GCN2 [2] were 300 to 3000 nM and < 300 nM, respectively.
Take `CN1CCC(n2cc(Nc3ncc4nnn(-c5ccc(C(N)=O)cc5)c4n3)cn2)CC1` [Compound A69, 4-{5-[1-(1-methyl-piperidin-4-yl)-1H-pyrazol-4-ylamino]-[1,2,3]triazolo[4,5-d]pyrimidin-3-yl}-benzamide]: the IC50 at GCN2 [1] was 300 to 3000 nM; on GCN2 [2] it was < 300 nM.
Consider `CCOc1ccc(-n2nnc3cnc(Nc4cnn(C5CCN(C)CC5)c4)nc32)cc1` [Compound A28, 3-(4-ethoxyphenyl)-N-[1-(1-methyl-4-piperidyl)pyrazol-4-yl]triazolo[4,5-d]pyrimidin-5-amine], for which the values for the half-inhibitory concentration (IC50) at GCN2 [1] and at GCN2 [2] were 300 to 3000 nM and < 300 nM, respectively.
For `COCCOc1ccc(-n2nnc3cnc(Nc4cnn([C@H]5CC[C@@H](O)CC5)c4)nc32)cc1` [Compound A107, 4-(4-{3-[4-(2-methoxy-ethoxy)-phenyl]-3H-[1,2,3]triazolo[4,5-d]pyrimidin-5-ylamino}-pyrazol-1-yl)-cyclohexanol] the same measures were 300 to 3000 nM and < 300 nM.
For `CCn1cc(Nc2ncc3nnn(-c4ccc5[nH]ncc5c4)c3n2)cn1` [Compound A91, (1-ethyl-1H-pyrazol-4-yl)-[3-(1H-indazol-5-yl)-3H-[1,2,3]triazolo[4,5-d]pyrimidin-5-yl]-amine] the same measures were 300 to 3000 nM and < 300 nM.
For `CCOc1ccc(-n2nnc3cnc(Nc4cnn(CCCC5CCNCC5)c4)nc32)cc1` [Compound A125, [3-(4-ethoxy-phenyl)-3H-[1,2,3]triazolo[4,5-d]pyrimidin-5-yl]-[1-(3-piperidin-4-yl-propyl)-1H-pyrazol-4-yl]-amine], in that order: < 300 nM and < 300 nM.
For `CCOc1ccc(-n2nnc3cnc(Nc4cnn(CCN5CCOCC5)c4)nc32)cc1` [Compound A115, [3-(4-ethoxy-phenyl)-3H-[1,2,3]triazolo[4,5-d]pyrimidin-5-yl]-[1-(2-morpholin-4-yl-ethyl)-1H-pyrazol-4-yl]-amine], the half-inhibitory concentration (IC50) was 3000 to 50000 nM on GCN2 [1] and < 300 nM against GCN2 [2].
As for `CCOc1ccc(-n2nnc3cnc(Nc4cnn(CCn5cccn5)c4)nc32)cc1` [Compound A54, [3-(4-ethoxy-phenyl)-3H-[1,2,3]triazolo[4,5-d]pyrimidin-5-yl]-[1-(2-pyrazol-1-yl-ethyl)-1H-pyrazol-4-yl]-amine], the IC50 at GCN2 [1] is 300 to 3000 nM; against GCN2 [2] it was < 300 nM.
For `COCCN1CCC(n2cc(Nc3ncc4nnn(-c5ccnc(OC)c5)c4n3)cn2)CC1` [Compound A76, {1-[1-(2-methoxy-ethyl)-piperidin-4-yl]-1H-pyrazol-4-yl}-[3-(2-methoxy-pyridin-4-yl)-3H-[1,2,3]triazolo[4,5-d]pyrimidin-5-yl]-amine] the same measures were 3000 to 50000 nM and < 300 nM.
As for `COc1ccc(-n2nnc3cnc(Nc4cnn(C5CCN(C)CC5)c4)nc32)cc1` [Compound A8, [3-(4-methoxy-phenyl)-3H-[1,2,3]triazolo[4,5-d]pyrimidin-5-yl]-[1-(1-methyl-piperidin-4-yl)-1H-pyrazol-4-yl]-amine], the IC50 on GCN2 [1] was 300 to 3000 nM; against GCN2 [2], < 300 nM.
`CCOc1ccc(-n2nnc3cnc(Nc4cnn(CCC5CCN(C(C)=O)CC5)c4)nc32)cc1` [Compound A100, 1-[4-(2-{4-[3-(4-ethoxy-phenyl)-3H-[1,2,3]triazolo[4,5-d]pyrimidin-5-ylamino]-pyrazol-1-yl}-ethyl)-piperidin-1-yl]-ethanone]: the IC50 on GCN2 [1] was 3000 to 50000 nM; against GCN2 [2], < 300 nM.
Regarding `CN1CCC(n2cc(Nc3ncc4nnn(-c5ccc(Cl)c(F)c5)c4n3)cn2)CC1` [Compound A44, [3-(4-chloro-3-fluoro-phenyl)-3H-[1,2,3]triazolo[4,5-d]pyrimidin-5-yl]-[1-(1-methyl-piperidin-4-yl)-1H-pyrazol-4-yl]-amine], the figures for the IC50 on GCN2 [1] and on GCN2 [2] were 300 to 3000 nM and < 300 nM, respectively.
For the compound `c1cnc2ccc(-n3nnc4cnc(Nc5cnn(C6CCOCC6)c5)nc43)cc2c1` [Compound A82, (3-quinolin-6-yl-3H-[1,2,3]triazolo[4,5-d]pyrimidin-5-yl)-[1-(tetrahydro-pyran-4-yl)-1H-pyrazol-4-yl]-amine], the 50% inhibitory concentration (IC50) at GCN2 [1] and against GCN2 [2] was 300 to 3000 nM each time.
Consider `Fc1cccc(-n2nnc3cnc(Nc4cnn(C5CCOCC5)c4)nc32)c1` [Compound A122, [3-(3-fluoro-phenyl)-3H-[1,2,3]triazolo[4,5-d]pyrimidin-5-yl]-[1-(tetrahydro-pyran-4-yl)-1H-pyrazol-4-yl]-amine], for which the 50% inhibitory concentration (IC50) was 300 to 3000 nM at GCN2 [1] and < 300 nM on GCN2 [2].
Regarding `COCCOc1ccc(-n2nnc3cnc(Nc4cnn(C5CCNC5)c4)nc32)cc1` (centres unmarked) [Compound A96, {3-[4-(2-methoxy-ethoxy)-phenyl]-3H-[1,2,3]triazolo[4,5-d]pyrimidin-5-yl}-(1-pyrrolidin-3-yl-1H-pyrazol-4-yl)-amine], the IC50 on GCN2 [1] is 300 to 3000 nM; against GCN2 [2], < 300 nM.
For `CCn1cc(-n2nnc3cnc(Nc4cnn(C5CCOCC5)c4)nc32)cn1` [Compound A83, [3-(1-ethyl-1H-pyrazol-4-yl)-3H-[1,2,3]triazolo[4.5-d]pyrimidin-5-yl]-[1-(tetrahydro-pyran-4-yl)-1H-pyrazol-4-yl]-amine], in that order: 3000 to 50000 nM and < 300 nM.
As for `CCn1cc(-n2nnc3cnc(Nc4cnn(C5CCN(C)CC5)c4)nc32)cn1` [Compound A79, [3-(1-ethyl-1H-pyrazol-4-yl)-3H-[1,2,3]triazolo[4,5-d]pyrimidin-5-yl]-[1-(1-methyl-piperidin-4-yl)-1H-pyrazol-4-yl]-amine], the IC50 at GCN2 [1] is 300 to 3000 nM; against GCN2 [2] it was < 300 nM.
For `COCCOc1ccc(-n2nnc3cnc(Nc4cnn(CCn5cccn5)c4)nc32)cc1` [Compound A65, {3-[4-(2-methoxy-ethoxy)-phenyl]-3H-[1,2,3]trtazolo[4,5-d]pyrimidin-5-yl}-[1-(2-pyrazol-1-yl-ethyl)-1H-pyrazol-4-yl]-amine] the same measures were 300 to 3000 nM and < 300 nM.
